Molecular target: T1, β3GnT-7 (Homo sapiens, UniProt Q8NFL0)
T1 construct: made in house; host or cells: Sf21 insect cells (baculovirus, Bac-to-Bac); purified from culture supernatant on anti-M1 (anti-FLAG) resin
T1 sequence (Q8NFL0 75-401): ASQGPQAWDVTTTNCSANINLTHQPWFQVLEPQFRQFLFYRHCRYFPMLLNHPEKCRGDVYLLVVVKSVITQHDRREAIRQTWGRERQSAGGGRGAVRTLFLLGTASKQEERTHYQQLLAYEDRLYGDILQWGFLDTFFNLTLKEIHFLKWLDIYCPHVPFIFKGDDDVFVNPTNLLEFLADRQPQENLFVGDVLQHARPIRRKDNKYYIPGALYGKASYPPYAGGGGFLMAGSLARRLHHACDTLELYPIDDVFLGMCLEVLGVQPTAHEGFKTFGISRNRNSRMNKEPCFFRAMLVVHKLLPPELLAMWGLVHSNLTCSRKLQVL
Test: Search of acceptor substrate of β3Gn-T7 (UDP-[14C]GlcNAc transfer, TLC radioactivity)
Type: biochemical
Settings: acceptor substrate 10 nmol, donor UDP-GlcNAc 480 μM, 37° C. for 5 hours, pH7.2
Excerpt: Using the following reaction systems, the acceptor substrate was searched. As the “acceptor substrate” in the reaction solution described below, each of the following was used and whether each of them functioned as the acceptor or not was investigated: pNp-α-Glc, pNp-β-Glc, pNp-α-GlcNAc, pNp-β-GlcNAc, pNp-α-Gal, pNp-β-Gal, pNp-α-GalNAc, Bz-α-GalNAc, pNp-α-Xyl, pNp-β-Xyl, pNp-α-Fuc, Bz-α-Man, Bz-α-ManNAc, LacCer, GalCer typel and Bz-β-lactoside (all of them are from SIGMA) and Galβ1-4GlcNAc-α-pNp (TRONTO RESEARCH CHEMICAL).
The reaction solution (the numbers in the parentheses indicate the final concentrations) contained acceptor substrate (10 nmol), sodium cacodylate buffer (pH7.2) (50 mM), Triton CF-54 (trademark) (0.4%), MnCl2 (10 mM), UDP-GlcNAC (480 μM) and UDP-[^14C]GlcNAC (175 nCi) and CDP-colline (5 mM), to which 10 μl of the β3Gn-T7 enzyme solution and H2O were added to attain a final volume of 25 μl.
The reaction mixture was allowed to react at 37° C. for 5 hours, and after completion of the reaction, 200 μl of 0.1 M KCl was added, followed by light centrifugation and collection of the supernatant. […] After developing the mixture up to 5 mm from the top end of the TLC plate, the plate was dried and the intensity of the radioactivity taken in the product was measured using Bio Image Analyzer FLA3000 (FUJI PHOTO FILM).

| Structure (SMILES) | whether it functioned as the acceptor (transfer of GlcNAc by β3GnT-7) |
| --- | --- |
| OC[C@H]1O[C@@H](O[C@H]2[C@H](O)[C@@H](O)[C@H](OCc3ccccc3)O[C@@H]2CO)[C@H](O)[C@@H](O)[C@H]1O [Bz-β-lactoside] | activity to transfer GlcNAc |
| CC(=O)N[C@H]1[C@@H](Oc2ccc([N+](=O)[O-])cc2)O[C@H](CO)[C@@H](O[C@@H]2O[C@H](CO)[C@H](O)[C@H](O)[C@H]2O)[C@@H]1O [Galβ1-4Glc(NAc)-α-pNp, Galβ1-4GlcNAc-α-pNp] | activity to transfer GlcNAc |

— US7223580B2, “N-acetylglucosamine transferase, nucleic acid encoding the same and use thereof in diagnosing cancer and/or tumor” (National Institute of Advanced Industrial Science and …, priority 2002, dated 2007)
